Data on nine molecules can be found in patent publication US7960420B2, “Diazonamide analogs with improved solubility” (Joyant Pharmaceuticals, Inc, priority 2007, dated 2011).

Series [1] is described as follows: aqueous solubility in de-ionized water. Format: physicochemical. The note with it: for solubility: thermodynamic from solid. Here is the method:
Unless otherwise indicated, the solubility measurements described herein are determined by dissolving the test compound in de-ionized (DI) water at 25° C. […] In particular, the compounds provided by Examples 22, 23, 28, 30, 31, 37 and 38 are water soluble.

The subject of series [2] is HCC461 human NSCLC xenograft. Put plainly: HCC461 human NSCLC xenograft tumor model in mice. The note with it: FIG. 1; 20 mg/kg per dose; injections at days 7, 9, 11, 14, 16 and 18 post tumor cell injection. Format: in vivo. As for the experimental part: Compound 22 (prepared according to Example 22) and Compound 28 (prepared according to Example 28) were tested in a HCC461 human NSCLC xenograft tumor model in mice.
Preparation of Tumor Cells • 1. Hcc461 cells were cultured in complete RPMI medium and excluded any contamination • 2. When cells are 70-80% confluent, medium was removed and cells were washed with serum free media, trypsinized, harvested and washed with serum free media for three times by centrifuge. After final washing, cells were counted and mixed with matrigel at 1:1 ration in volume. Cells were suspended in a volume that 200 PI contains required number of cells per injection.
Preparation of Mice • 1. Mice should be 4-6 weeks old. • 2. Allow 3-5 days acclimatization period after mice have arrived.
Preparation of the Injection • 1. Clean and sterilize the inoculation area of the mice with iodine solutions and ethanol. • 2. Take cells with 1-cc syringe. • 3. Inject cells (1×10^7) with 27 gauge needles subcutaneously (s.c.) into the lower flank of the mice. • 4. Therapy was started after 1 week when the tumors have reached an average volume of ˜250 mm^3. • 5. Tumor diameters are measured with digital calipers, and the tumor volume in mm^3 is calculated by the formula: Volume=(width)^2×length/2
Treatment • 1. Compound 22 and Compound 28 were dissolved in water at concentration of 5 mg/ml and diluted to working solution with D5W before injection. Compound 16 was administered at 20 mg/kg in a mixture of 5% ethanol-5% cremaphor-90% saline. • 2. Each tumor bearing mouse was injected with Compound 22 at 20 mg/kg, Compound 28 at 20 mg/kg or at 10 mg/kg, or Compound 16 at 20 mg/kg via tail vein and continually injected with the same method for a total of 6 times, on days 7, 9, 11, 14, 16, and 18 post tumor-cell injection.
(Xenograft models place foreign cells or tissue in a host animal.)

Series [3] is described as follows: stability of aqueous solution at room temperature. The class given is physicochemical. As for the experimental part: To the combined filtration above was added a stock solution of NaOH in water (14.4 mg/mL, 1 mL, 0.360 mmol). The resulting solution was concentrated to remove most of MeOH at room temperature. Then the residue was diluted with DI water (100 mL). This solution was filtered through a syringe filter (0.45 um) to remove tiny particles. The filtrate was lyophilized to afford the desired compound monosodium salt, 31 (285 mg, 97% yield for two steps).

The next series deals with microtubule assembly. To be noted: Cruz-Monserrate et al., Mol. Pharmacol., 2003; cited from earlier work.
Another series deals with HCT-116 cells. The note with it: a human colorectal carcinoma line; cited from earlier work.
Setting [4] is: de-ionized (DI) water at 25° C., read-out: water solubility.

Molecules are shown by their SMILES. Like-named read-outs stand apart in the source and are kept apart here.

As usually defined, the solubility is the dissolved amount per volume that the medium holds. As for `CC(C)[C@@H]1NC(=O)[C@@H](NC(=O)[C@@H](OP(=O)([O-])O)C(C)C)Cc2ccc3c(c2)[C@]24C5=C(N=C1O5)c1ncc(o1)-c1c[nH]c5cccc(c15)-c1cccc2c1NC4O3.[Na+]` (stereo partly drawn) [Compound 23], the “amount shown to dissolve in 1 mL of de-ionized water” value in series [1] (1 mL of de-ionized water) was 5 mg. For the same molecule, the solubility in series [1] (setting [4]) was greater than 1000 µg/mL.

Regarding `CC(C)[C@@H]1NC(=O)[C@@H](NC(=O)[C@@H](OP(=O)(O)O)C(C)C)Cc2ccc3c(c2)[C@]24C5=C(N=C1O5)c1ncc(o1)-c1c[nH]c5cccc(c15)-c1cccc2c1NC4O3` (stereo partly drawn) [Compound 22], in series [2], the tumor free animals result was “no tumor free animals” and the “weight loss in the treated group” value is on record as “No weight loss”. Besides, the solubility in series [1] (setting [4]) is greater than 1000 µg/mL.

`CCC(O)(CC)C(=O)N[C@H]1Cc2ccc3c(c2)C24C5=C(N=C(O5)[C@H](C(C)C)NC1=O)c1ncc(o1)-c1c[nH]c5c(OP(=O)(O)O)ccc(c15)-c1cccc2c1NC4O3` (stereo partly drawn) [Compound 37]: the solubility in series [1] (setting [4]) was greater than 1000 µg/mL.

For `CCC(O)(CC)C(=O)N[C@H]1Cc2ccc3c(c2)[C@]24C5=C(N=C(O5)[C@H](C(C)C)NC1=O)c1ncc(o1)-c1cn(P(=O)([O-])O)c5cccc(c15)-c1cccc2c1NC4O3.[Na+]` (stereo partly drawn) [Compound 31], the solubility in series [1] (setting [4]) is greater than 1000 µg/mL; in series [1] (water, 25 °C, water, read-out: solubility in water) it was 20000 µg/mL. In addition, the “time for which the aqueous solution is stable” value in series [3] is “more than 48 hours”.

Regarding `CC(C)C1NC(=O)[C@@H](NC(=O)[C@@H](O)C(C)C)Cc2ccc3c(c2)C24C5=C(N=C1O5)c1ncc(o1)-c1c[nH]c5cccc(c15)-c1cccc2c1N[C@H]4O3` (stereo partly drawn) [Compound 16], in series [2], the tumor free animals entry is on record as “no tumor free animals”.

Take `CCC(O)(CC)C(=O)N[C@H]1Cc2ccc3c(c2)C24C5=C(N=C(O5)[C@H](C(C)C)NC1=O)c1ncc(o1)-c1c[nH]c5c(OP(=O)([O-])[O-])ccc(c15)-c1cccc2c1NC4O3.[Na+].[Na+]` (stereo partly drawn) [Compound 38]: the solubility in series [1] (setting [4]) was greater than 1000 µg/mL.

For `CCC(O)(CC)C(=O)N[C@H]1Cc2ccc3c(c2)[C@]24C5=C(N=C(O5)[C@H](C(C)C)NC1=O)c1ncc(o1)-c1cn(P(=O)(O)O)c5cccc(c15)-c1cccc2c1NC4O3` (stereo partly drawn) [Compound 30], the solubility in series [1] (setting [4]) is greater than 1000 µg/mL.

For the molecule `CC(C)[C@H](O)C(=O)N[C@H]1Cc2ccc3c(c2)[C@]24C5=C(N=C(O5)[C@H](C(C)C)NC1=O)c1ncc(o1)-c1cn(P(=O)(O)O)c5cccc(c15)-c1cccc2c1NC4O3` (stereo partly drawn) [Compound 28], the solubility in series [1] (setting [4]) was greater than 1000 µg/mL.

With `CC(C)[C@H](O)C(=O)NC1Cc2ccc3c(c2)[C@]24C5=C(N=C(O5)[C@H](C(C)C)NC1=O)c1nc(Cl)c(o1)-c1c(Cl)[nH]c5cccc(c15)-c1cccc2c1NC4O3` (stereo partly drawn) [Diazonamide A], in the series with microtubule assembly, the “inhibition of microtubule assembly” value was “inhibit microtubule assembly”. Further, the “GI50 values (50% growth inhibitory concentration)” value in the series with HCT-116 cells is “less than 15 ng/ml”.
